According to US11484561B2, “Morus extracts rich in N-acids of imino sugars and or pipecolic acids” (Phynova Limited, priority 2011, dated 2022):

Columns and labels:
Type in all cases: biochemical
[1] = target: T1, α-D-galactosidase (green coffee bean) (Coffea arabica, UniProt Q42656); test: Glycosidase assay, α-D-galactosidase (green coffee bean); details: Table 16; % inhibition; concentration not given
T1 construct: purchased Sigma-Aldrich
Procedure: (§1) The assays used p-nitrophenyl-substrates and commercial enzymes purchased from Sigma-Aldrich. Enzymes were assayed at 27° C. in 0.1M citric acid/0.2M disodium hydrogen phosphate buffers at the optimum pH for the enzyme. The incubation mixture consisted of 10 μl enzyme solution, 10 μl of 10 mg/ml aqueous solution of extract and 50 μl of the appropriate 5 mM p-nitrophenyl substrate made up in buffer at the optimum pH for the enzyme. The reactions were stopped by addition of 70 μl 0.4M glycine (pH 10.4) during the exponential phase of the reaction, which had been determined at the beginning using uninhibited assays in which water replaced mulberry fractions. Final absorbances were read at 405 nm using a Versamax microplate reader (Molecular Devices). Assays were carried out in triplicate, and the values given are means of the three replicates per assay. Results are expressed as % inhibition.
(§2) Substrates are 10 mM p-nitrophenyl-glycopyranosides. Enzymes are purchased from Sigma and run at the pH optima

[2] = target: T2, β-D-galactosidase (bovine) (Bos taurus, UniProt Q58D55); test: Glycosidase assay, β-D-galactosidase (bovine); details: Table 16; % inhibition; concentration not given
T2 construct: purchased Sigma-Aldrich
T2 sequence (Q58D55 28-653): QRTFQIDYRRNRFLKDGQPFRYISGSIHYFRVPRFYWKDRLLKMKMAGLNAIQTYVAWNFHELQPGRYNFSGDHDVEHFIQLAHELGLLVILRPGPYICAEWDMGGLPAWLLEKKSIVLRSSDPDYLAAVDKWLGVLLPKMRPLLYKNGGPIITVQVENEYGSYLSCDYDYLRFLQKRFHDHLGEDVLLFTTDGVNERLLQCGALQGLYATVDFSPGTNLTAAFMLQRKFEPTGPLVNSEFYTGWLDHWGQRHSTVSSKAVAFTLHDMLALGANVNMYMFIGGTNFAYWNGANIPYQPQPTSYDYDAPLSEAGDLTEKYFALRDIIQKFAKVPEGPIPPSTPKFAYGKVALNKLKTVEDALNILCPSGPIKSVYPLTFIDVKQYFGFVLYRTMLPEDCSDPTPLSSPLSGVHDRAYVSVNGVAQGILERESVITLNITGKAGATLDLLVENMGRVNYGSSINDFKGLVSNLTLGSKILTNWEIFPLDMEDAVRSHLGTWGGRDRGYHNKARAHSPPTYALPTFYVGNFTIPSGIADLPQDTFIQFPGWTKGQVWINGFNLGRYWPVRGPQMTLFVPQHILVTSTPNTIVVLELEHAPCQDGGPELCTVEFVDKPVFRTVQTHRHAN
Procedure: as §1, §2

α-L-fucosidase (bovine) = target: T3, α-L-fucosidase (bovine) (Bos taurus, UniProt Q2KIM0); test: Glycosidase assay, α-L-fucosidase (bovine); details: Table 16; % inhibition; concentration not given
T3 construct: purchased Sigma-Aldrich
T3 sequence (Q2KIM0 23-468): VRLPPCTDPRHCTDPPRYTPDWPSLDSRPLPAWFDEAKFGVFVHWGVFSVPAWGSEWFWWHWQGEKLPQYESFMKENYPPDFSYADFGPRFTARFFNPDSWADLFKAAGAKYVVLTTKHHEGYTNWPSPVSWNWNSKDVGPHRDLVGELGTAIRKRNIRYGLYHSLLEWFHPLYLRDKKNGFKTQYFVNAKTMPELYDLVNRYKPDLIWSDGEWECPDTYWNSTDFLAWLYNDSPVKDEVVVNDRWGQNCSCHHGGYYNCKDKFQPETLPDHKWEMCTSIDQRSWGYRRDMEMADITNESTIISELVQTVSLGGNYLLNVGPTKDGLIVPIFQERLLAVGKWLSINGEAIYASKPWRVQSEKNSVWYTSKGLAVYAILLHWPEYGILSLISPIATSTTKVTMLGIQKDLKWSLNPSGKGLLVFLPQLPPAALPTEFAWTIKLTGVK
Procedure: as §1

[3] = tested on: naringinase (P. decumbens); test: Glycosidase assay, naringinase (P. decumbens); details: Table 16; % inhibition; concentration not given
Procedure: as §1, §2

[4] = tested on: N-acetyl-β-D-gluc (Bovine kidney); test: Glycosidase assay, N-acetyl-β-D-gluc (Bovine kidney); details: Table 16; % inhibition; concentration not given
Procedure: as §1, §2

β-D-glucosidase (yeast) = test: Glycosidase assay, β-D-glucosidase (yeast); details: Table 16; % inhibition; concentration not given
Procedure: as §1

[5] = target: T4, human recombinant α-L-iduronidase (Homo sapiens, UniProt P35475); test: α-L-iduronidase inhibition
T4 sequence (P35475 28-653): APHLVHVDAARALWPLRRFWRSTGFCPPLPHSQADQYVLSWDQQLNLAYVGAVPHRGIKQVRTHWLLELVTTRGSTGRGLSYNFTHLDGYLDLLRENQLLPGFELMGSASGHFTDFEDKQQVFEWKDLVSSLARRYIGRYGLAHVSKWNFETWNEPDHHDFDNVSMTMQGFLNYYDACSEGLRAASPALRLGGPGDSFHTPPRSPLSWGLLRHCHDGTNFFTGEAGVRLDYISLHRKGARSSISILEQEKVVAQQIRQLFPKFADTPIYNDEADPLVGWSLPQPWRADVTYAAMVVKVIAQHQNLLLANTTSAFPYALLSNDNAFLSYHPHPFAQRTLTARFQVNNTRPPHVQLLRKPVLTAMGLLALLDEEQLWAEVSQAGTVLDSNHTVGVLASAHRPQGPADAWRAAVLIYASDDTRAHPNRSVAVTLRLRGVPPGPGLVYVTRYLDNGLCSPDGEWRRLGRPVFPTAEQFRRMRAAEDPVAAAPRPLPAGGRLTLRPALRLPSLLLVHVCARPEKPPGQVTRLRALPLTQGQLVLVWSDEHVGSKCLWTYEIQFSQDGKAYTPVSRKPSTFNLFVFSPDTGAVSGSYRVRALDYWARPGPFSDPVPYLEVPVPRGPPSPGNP

T1 sequence (Q42656 16-378): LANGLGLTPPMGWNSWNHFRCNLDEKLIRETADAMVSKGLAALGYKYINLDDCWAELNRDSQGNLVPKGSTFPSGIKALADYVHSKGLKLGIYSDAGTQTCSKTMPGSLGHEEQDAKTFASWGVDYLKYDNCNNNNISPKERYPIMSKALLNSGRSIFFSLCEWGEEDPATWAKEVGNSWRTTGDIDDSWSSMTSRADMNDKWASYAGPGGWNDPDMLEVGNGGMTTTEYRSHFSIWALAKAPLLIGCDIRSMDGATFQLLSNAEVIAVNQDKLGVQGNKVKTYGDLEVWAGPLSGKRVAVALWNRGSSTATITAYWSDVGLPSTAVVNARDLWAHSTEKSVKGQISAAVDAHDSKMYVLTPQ

Row | SMILES | α-D-galactosidase (Green coffee beans) [1] | β-D-galactosidase (Bovine) [2] | α-L-fucosidase (Bovine) (α-L-fucosidase (bovine)) | Naringinase (P. decumbens) [3] | N-acetyl-β-D-gluc (Bovine kidney) [4] | β-D-glucosidase (yeast) (β-D-glucosidase (yeast)) | inhibition of the iduronidase, in words ([5]; at 0.8 mM) | IC50 [5]
1 | O=C(O)CN1C[C@H](O)[C@@H](O)[C@H](O)[C@H]1CO [DNJ-N-ethanoic, DNJ-ethanoic acid] | −8% | 2% | 5% | 0% | 84% | 14% | only weakly inhibits | –
2 | OC[C@H]1NC[C@H](O)[C@@H](O)[C@@H]1O [DNJ, 1 deoxynojirmycin] | −3% | 0% | 6% | 21% | 0% | 64% | – | –
3 | O=C(O)CCN1C[C@H](O)[C@@H](O)[C@H](O)[C@H]1CO [DNJ-N-propanoic, DNJ-N-propanoic acid] | 15% | 12% | 11% | 4% | 86% | 32% | – | 383 µM
4 | O=C(O)CN1C[C@@H](O)[C@H](O)[C@H]1CO [DAB-N-ethanoic, DAB-N-ethanoic acid] | −5% | 0% | 3% | 0% | 82% | 7% | – | 196 µM
